Earlier results as cited in patent US20230102999A1, “DEUTERATED NICLOSAMIDE” (First Wave Bio, Inc., priority 2020, published 2023).
Where a name gives a salt, the structure may show the parent alone.

Tests used:
[1] = at 20° C.

dissolves in distilled water ([1]; distilled water) | water solubility ([1]; water) | solubility in acetone (acetone) | solubility in ether, ethanol and chloroform (ether, ethanol and chloroform) | Structure (SMILES)
180 to 280 mg/L |  |  |  | O=C(Nc1ccc([N+](=O)[O-])cc1Cl)c1cc(Cl)ccc1O [ethanolamine salt, 5-chloro-salicyl-(2-chloro-4-nitro) anilide 2-aminoethanol salt]
 | 5 to 8 µg/mL | soluble | sparingly soluble | O=C(Nc1ccc([N+](=O)[O-])cc1Cl)c1cc(Cl)ccc1O [Niclosamide, 5-chloro-N-(2-chloro-4-nitrophenyl)-2-hydroxybenzamide]
